Laboratory results published in PMC5740082, “Identification of a CARM1 Inhibitor with Potent In Vitro and In Vivo Activity in Preclinical Models of Multiple Myeloma” (Scientific Reports, 2017).
Where two headings read alike, the source gives them in different places.

Columns and labels:
[1] = target: T1, CARM1 (Homo sapiens, UniProt Q86X55); assay: CARM1 histone methyltransferase (biochemical) assay; details: for IC50: 30 min preincubation, IC50 measured at 120 minutes
T1 construct: FLAG-CARM1 (amino acids 2–585)-His for biochemical studies was expressed in 293 F mammalian cells; made in house; host or cells: 293F mammalian cells
T1 sequence (Q86X55 2-585 isoform Q86X55-1): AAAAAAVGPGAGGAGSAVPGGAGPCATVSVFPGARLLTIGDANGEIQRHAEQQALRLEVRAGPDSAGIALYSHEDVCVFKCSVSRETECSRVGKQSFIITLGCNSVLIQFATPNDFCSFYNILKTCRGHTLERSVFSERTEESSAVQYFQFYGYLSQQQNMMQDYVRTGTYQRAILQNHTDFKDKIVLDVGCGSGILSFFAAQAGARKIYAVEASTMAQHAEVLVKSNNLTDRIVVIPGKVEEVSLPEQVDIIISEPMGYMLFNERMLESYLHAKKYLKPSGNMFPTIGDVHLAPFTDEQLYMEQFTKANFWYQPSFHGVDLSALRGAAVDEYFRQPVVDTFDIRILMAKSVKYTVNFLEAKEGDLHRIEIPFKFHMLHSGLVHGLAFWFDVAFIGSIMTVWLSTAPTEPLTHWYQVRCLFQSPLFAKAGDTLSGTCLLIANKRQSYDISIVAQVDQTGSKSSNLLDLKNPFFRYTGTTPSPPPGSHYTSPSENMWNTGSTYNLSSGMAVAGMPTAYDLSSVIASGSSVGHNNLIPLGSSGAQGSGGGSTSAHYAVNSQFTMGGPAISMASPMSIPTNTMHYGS
Experimental: CARM1 activity was measured as previously reported for the histone methyltransferases PRMT1/6/8[65] and PRMT5[58]. Briefly, CARM1 was preincubated with compounds for 30 minutes at room temperature before reactions were initiated. […] The assays were quenched by the addition of 300 μM unlabeled SAM. The quantity of ^3H-labeled peptide produced was measured by Flashplate on a Topcount reader. Further details can be found in the Supplementary Methods.
Histone methyltransferase assay
The compounds were preincubated with CARM1 for 30 minutes at room temperature before the reactions were initiated by the addition of substrates. […]
containing 20 mM bicine, 1 mM tris(2-carbox yethyl)phosphine, 0.005% bovine skin gelatin and 0.002% Tween-20, pH 7.5 and 2% DMSO. The peptide sequence was biotin-aminohexanoate- […]
eKS AP-amide, where RMe is a monomethylated arginine residue (21st
Century Biochemicals, Marlboro, MA). After 2 hours, assa ys were quenched b y the addition of 300 μM unlabeled SAM. The reactions were tran sferred to a 384-well Flashplate (Perkin Elmer) and the biotinylated peptides were allowed to bind to the streptavidin surface for at least 1 hour before being washed once with 0.1% Tween 20. The quantit y of 3H-labeled peptide bound to the Flashplate surface was counted on a Topcount reader as counts per minute (cpm). % Inhibition values wer e calculated and IC50 values were fit using the 3 -param eter IC50 equation below:
YY = BBBBBBBBBBBB + (100 − BBBBBBBBBBBB )HHHHHHHH CCCCCCCCCCHHCCHHCCCCCC where top is fixed at 100 or the maximum inhibition plateau , Y is % inhibition and X is […]
IC50 vs [peptide] data were fit to the noncom petitive Cheng- Prusoff […]
The effect of reaction time on compound potency was determined b y meas uring IC50 values from […]
to a one phase exponential deca y equation. […]
activity was measured under standard conditions after a 30 minute preincubation.
IC 50 values were d etermi ned and data wer e anal yz ed using the following eq uation: […]

[2] = test system: asymmetric di-methyl PABP1 in RKO cells; assay: In cell western (ICW) assay for asymmetric di-methyl PABP1; details: Homo sapiens, 48 h, read-out: CARM1 ICW IC50
Experimental: In cell w estern assay f or detection of asymmetric di -methyl PABP1 an d DNA content RKO cells (ATCC) were maintained in growth medium (DMEM/Glutamax medium supplemented with 10% v/v heat inactivated fetal bovine serum and 100 units/mL penicillin-streptom ycin) and cultured at 37 °C under 5% CO2. Cells were seeded in assay medium at a concentration of 30,000 cells per m L to a pol y -D-l ys ine coated 384 well culture plate with 50 µ L per well. Compound (100 nL) from a 96-well sou rce plate was add ed directl y to 384 well cell plate. Plates were incubated at 37°C, 5% CO2 for 48 hours. After two da ys of incubation, plates were brought to room temperature outside of the incubator for ten minutes and blotted on paper towels to remove cell media. Cells were fixed for 20 minutes atroom temperature b y adding 50 µl of 8% PFA followed by aspiration of supernatant. Cells were then permeabilized by addition of 50 µ L of i ce cold 100% methanol directl y to each well and incubated for 30 min at room temperature. After 30 min, plates were washed 2 times with 100 µL per well of wash buffer (1X PBS). Next 60 µL per well of Odysse y blocking buffer (Od ysse y Buffer wi th 0.1% Tween 20 (v/v)) were added to each plate and incubat ed 1 hour at room temperature. Blocking buffer was removed and 20 µ L per well of primar y antibod y was added (as ymmetric-methyl PABP1) diluted 1:400 in Odysse y buffer with 0.1% Tween 20 (v/v)) and plates were incubated overni ght (16 hours) at 4°C. Plates were washed 5 times wit h 100 µ L per well of wash buffer. Next 20 µL per well of secondar y ant ibody was added (1:800 800CW goat anti-rabbit IgG (H+L) antibod y, 1:2000 DRAQ5 in Odyss ey buffer with 0.1% Tween 20 (v/v)) and incubated for 1 hour at room temperature. The plates were washed 5 times wit h 100 µ L per well wash buffer then 2 times with 100 µ L per well of w ater . Plates were allowed to dr y at room temper ature t hen imag ed on the Lico r Od ysse y machine. The ratio of as ymmetri c di-methyl PABP1 to DR AQ5 was det ermined for each well and then used to determine percent i nhibition relative to DMSO control. IC 50 curves were generated us ing triplicate wells per concentration of compound.

[3] = test system: 20 other diverse HMTs in the Epizyme enzyme panel; assay: Methyltransferase cross screening panel
[4] = Pharmacokinetic profiles in mice and rats; type: in vivo
[5] = test system: PABP1, SmB, aDMA and histone H3 methylation in RPMI-8226 cells; assay: Western blot of cellular methyl marks, RPMI-8226; type: cell-based, human; details: for IC50: Homo sapiens
[6] = read-out: CARM1 Biochemical IC50

IC50 ([1]; read-out: CARM1 IC50) [nM]	IC50 [2] [nM]	fold more potent against CARM1 than compound 1 [1] [fold]	IC50 [1, 6] [nM]	selectivity for CARM1 over 20 other diverse HMTs [3]	IC50 ([5]; 96 h, RPMI-8226, four days, 0.0003 to 5 µM, read-out: IC50, SmBme0) [nM]	IC50 ([5]; RPMI-8226, 96 h treatment, read-out: IC50, methylation of PABP1 (PABP1me2a)) [nM]	biochemical potency against CARM1 compared with EZM2302 [1]	SMILES	pharmacokinetic profiles [4]	changes in methylation ([5]; RPMI-8226, four days)
2300 ± 800	> 20000							Cn1cnc2ccc(-c3cccc(OCC(O)CN)c3)nc21 (stereo not drawn) [Compound 1]		
	19000	50	46 ± 9	more than 100 fold				CC(C)n1ncc2c(N3CCOCC3)cc(-c3cccc(OCC(O)CN)c3)nc21 (stereo not drawn) [Compound 2]		
	11		3					CNC[C@@H](O)COc1ccc(Cl)c(-c2nc(-c3c(C)noc3C)c(C)c(N3Cc4cnc(N5CCC5)nc4C3)n2)c1 [EPZ025654]	without satisfactory pharmacokinetic profiles	
	> 6500		> 1000		> 5000	> 5000	much weaker biochemical potency	CNC[C@@H](O)COc1cc(-c2nc(-c3c(C)noc3C)c(C)c(N3CC4(CCN(C(=O)OC)CC4)C3)n2)ccc1Cl [EPZ029751, methyl 2-(2-(4-chloro-3-((R)-2-hydroxy-3-(methylamino)propoxy)phenyl)-6-(3,5-dimethylisoxazol-4-yl)-5-methylpyrimidin-4-yl)-2,7-diazaspiro[3.5]nonane-7-carboxylate]		No robust changes in methylation
